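In this assay, cells in 96-well plates receive the compound at five concentrations for 48 hours. Endpoints are linearly interpolated between the surrounding concentrations. The concentration for 50% growth inhibition is given as GI50.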 Active and inactive are the calls of the source. No stated cut-off is given here; in the data, active = GI50 up to about 1.1 µM and inactive = higher.
Tests used:
Test in all cases: NCI-60 cell line screen, 48 h
KM12 = tested on: KM12
HCT-15 = tested on: HCT-15
SK-OV-3 = tested on: SK-OV-3
SW-620 = tested on: SW-620
DU-145 = tested on: DU-145
SK-MEL-28 = tested on: SK-MEL-28
SK-MEL-2 = tested on: SK-MEL-2
COLO 205 = tested on: COLO 205
MCF7 = tested on: MCF7
RPMI-8226 = tested on: RPMI-8226
OVCAR-8 = tested on: OVCAR-8
A498 = tested on: A498
SNB-75 = tested on: SNB-75
UO-31 = tested on: UO-31
OVCAR-3 = tested on: OVCAR-3
PC-3 = tested on: PC-3
UACC-257 = tested on: UACC-257
A549 = tested on: A549
OVCAR-4 = tested on: OVCAR-4
HOP-92 = tested on: HOP-92

With C[C@H](C(O)CC(=O)C(C)(C)O)[C@H]1CC[C@@]2(C)[C@@H]3CC[C@H]4C(C)(C)[C@@H](OC5OC(COC6OC(CO)C(O)C(O)C6O)C(O)C(O)C5O)CC[C@]4(C)C3=CC[C@]12C (some centres undefined) the GI50 (KM12) was > 100 µM (inactive), the GI50 (HCT-15) was over 100 µM and the GI50 (SK-OV-3) was > 100 µM (inactive). For the same compound, the GI50 (SW-620) was > 100 µM (inactive), the GI50 (DU-145) was > 100 µM (inactive) and the GI50 (SK-MEL-28) was > 100 µM (inactive). For the same compound, the GI50 (SK-MEL-2) was > 100 µM (inactive), the GI50 (COLO 205) was > 100 µM (inactive) and the GI50 (MCF7) was > 100 µM (inactive). For the same compound, the GI50 (RPMI-8226) was > 100 µM (inactive), the GI50 (OVCAR-8) was > 100 µM (inactive) and the GI50 (A498) was > 100 µM (inactive). For the same compound, the GI50 (SNB-75) was > 100 µM (inactive), the GI50 (UO-31) was > 100 µM (inactive) and the GI50 (OVCAR-3) was > 100 µM (inactive). For the same compound, the GI50 (PC-3) was > 100 µM (inactive), the GI50 (UACC-257) was > 100 µM (inactive) and the GI50 (A549) was > 100 µM (inactive). The GI50 (OVCAR-4) was > 100 µM (inactive) and the GI50 (HOP-92) was > 100 µM (inactive).
Cn1c(-c2cccs2)cc(-c2cccs2)c1-c1ccsc1 was tested, and the GI50 (KM12) was 29.5 µM (inactive), the GI50 (HCT-15) was 32.9 µM and the GI50 (SK-OV-3) was > 100 µM (inactive). For the same compound, the GI50 (SW-620) was > 100 µM (inactive), the GI50 (DU-145) was > 100 µM (inactive) and the GI50 (SK-MEL-28) was > 100 µM (inactive). For the same compound, the GI50 (SK-MEL-2) was 34.1 µM (inactive), the GI50 (COLO 205) was > 100 µM (inactive) and the GI50 (MCF7) was 2.03 µM (inactive). For the same compound, the GI50 (RPMI-8226) was > 100 µM (inactive), the GI50 (OVCAR-8) was > 100 µM (inactive) and the GI50 (A498) was > 100 µM (inactive). For the same compound, the GI50 (SNB-75) was > 100 µM (inactive), the GI50 (UO-31) was > 100 µM (inactive) and the GI50 (OVCAR-3) was 12.4 µM (inactive). For the same compound, the GI50 (PC-3) was > 100 µM (inactive), the GI50 (UACC-257) was 66.8 µM (inactive) and the GI50 (A549) was 70.5 µM (inactive). The GI50 (OVCAR-4) was > 100 µM (inactive) and the GI50 (HOP-92) was > 100 µM (inactive).
In the case of O=C1Nc2ccc(Cl)cc2C(=O)N2CCC[C@@H]12, the GI50 (KM12) is reported as > 100 µM (inactive), the GI50 (HCT-15) is reported as over 100 µM and the GI50 (SK-OV-3) is reported as > 100 µM (inactive). For the same compound, the GI50 (SW-620) was > 100 µM (inactive), the GI50 (DU-145) was > 100 µM (inactive) and the GI50 (SK-MEL-28) was > 100 µM (inactive). For the same compound, the GI50 (SK-MEL-2) was > 100 µM (inactive), the GI50 (COLO 205) was > 100 µM (inactive) and the GI50 (MCF7) was > 100 µM (inactive). The GI50 (RPMI-8226) was > 100 µM (inactive), the GI50 (OVCAR-8) was > 100 µM (inactive) and the GI50 (A498) was > 100 µM (inactive). The GI50 (SNB-75) was > 100 µM (inactive), the GI50 (UO-31) was > 100 µM (inactive) and the GI50 (OVCAR-3) was > 100 µM (inactive). For the same compound, the GI50 (PC-3) was > 100 µM (inactive), the GI50 (UACC-257) was > 100 µM (inactive) and the GI50 (A549) was > 100 µM (inactive). For the same compound, the GI50 (OVCAR-4) was > 100 µM (inactive) and the GI50 (HOP-92) was > 100 µM (inactive).
C/C=C1\CN2CCC34c5ccccc5N(C)C35OCC4(C(=O)OC)C1CC25 (centres undefined) was tested, and the GI50 (KM12) was 37.1 µM (inactive), the GI50 (HCT-15) was 23.1 µM and the GI50 (SK-OV-3) was > 100 µM (inactive). For the same compound, the GI50 (SW-620) was 41.6 µM (inactive), the GI50 (DU-145) was 74.6 µM (inactive) and the GI50 (SK-MEL-28) was 27.7 µM (inactive). For the same compound, the GI50 (SK-MEL-2) was 42.2 µM (inactive), the GI50 (COLO 205) was 16 µM (inactive) and the GI50 (MCF7) was 40.7 µM (inactive). For the same compound, the GI50 (RPMI-8226) was 24.7 µM (inactive), the GI50 (A498) was > 100 µM (inactive) and the GI50 (SNB-75) was 99.5 µM (inactive). For the same compound, the GI50 (UO-31) was 70.6 µM (inactive), the GI50 (OVCAR-3) was 76.2 µM (inactive) and the GI50 (PC-3) was 27.9 µM (inactive). For the same compound, the GI50 (UACC-257) was 32.4 µM (inactive), the GI50 (A549) was 61.4 µM (inactive) and the GI50 (OVCAR-4) was 51.2 µM (inactive). The GI50 (HOP-92) was 28.6 µM (inactive).
In the case of c1ccc(CSC(SCc2ccccc2)c2ccc3c(c2)OCO3)cc1, the GI50 (KM12) is reported as > 10 µM (inactive), the GI50 (HCT-15) is reported as over 10 µM and the GI50 (SK-OV-3) is reported as 6.44 µM (inactive). For the same compound, the GI50 (SW-620) was > 10 µM (inactive), the GI50 (DU-145) was > 10 µM (inactive) and the GI50 (SK-MEL-28) was > 10 µM (inactive). The GI50 (SK-MEL-2) was > 10 µM (inactive), the GI50 (COLO 205) was > 10 µM (inactive) and the GI50 (MCF7) was > 10 µM (inactive). For the same compound, the GI50 (RPMI-8226) was > 10 µM (inactive), the GI50 (OVCAR-8) was > 10 µM (inactive) and the GI50 (A498) was > 10 µM (inactive). The GI50 (SNB-75) was > 10 µM (inactive), the GI50 (UO-31) was > 10 µM (inactive) and the GI50 (OVCAR-3) was > 10 µM (inactive). The GI50 (PC-3) was > 10 µM (inactive), the GI50 (UACC-257) was > 10 µM (inactive) and the GI50 (A549) was > 10 µM (inactive). For the same compound, the GI50 (OVCAR-4) was > 10 µM (inactive) and the GI50 (HOP-92) was > 10 µM (inactive).
With COC(=O)C1=CC2CCCC1(O)C(C(C)=O)C2 (centres undefined) the GI50 (KM12) was > 81.1 µM (inactive), the GI50 (HCT-15) was over 66.5 µM and the GI50 (SK-OV-3) was > 100 µM (inactive). For the same compound, the GI50 (SW-620) was > 61.8 µM (inactive), the GI50 (DU-145) was > 69.7 µM (inactive) and the GI50 (SK-MEL-28) was > 100 µM (inactive). For the same compound, the GI50 (SK-MEL-2) was > 68.7 µM (inactive), the GI50 (COLO 205) was 39.8 µM (inactive) and the GI50 (MCF7) was > 79.6 µM (inactive). For the same compound, the GI50 (RPMI-8226) was 25.1 µM (inactive), the GI50 (OVCAR-8) was 44.4 µM (inactive) and the GI50 (A498) was > 100 µM (inactive). The GI50 (SNB-75) was 24.4 µM (inactive), the GI50 (UO-31) was 17.3 µM (inactive) and the GI50 (OVCAR-3) was > 100 µM (inactive). The GI50 (PC-3) was 61.2 µM (inactive), the GI50 (UACC-257) was > 100 µM (inactive) and the GI50 (A549) was 51.9 µM (inactive). The GI50 (OVCAR-4) was > 62.7 µM (inactive) and the GI50 (HOP-92) was 41.4 µM (inactive).
In the case of O=c1[nH]/c(=C/c2ccc(OCc3ccccc3)cn2)c(=O)[nH]/c1=C/c1ccc(O)cc1, the GI50 (KM12) is reported as 1.23 µM (inactive), the GI50 (HCT-15) is reported as 0.501 µM and the GI50 (SK-OV-3) is reported as 4.99 µM (inactive). The GI50 (SW-620) was 0.537 µM (active), the GI50 (DU-145) was 0.984 µM (active) and the GI50 (SK-MEL-28) was 1.79 µM (inactive). For the same compound, the GI50 (SK-MEL-2) was 1.33 µM (inactive), the GI50 (COLO 205) was 1.45 µM (inactive) and the GI50 (MCF7) was 1 µM (active). For the same compound, the GI50 (RPMI-8226) was 0.766 µM (active), the GI50 (OVCAR-8) was 0.877 µM (active) and the GI50 (A498) was > 37.2 µM (inactive). For the same compound, the GI50 (SNB-75) was 0.762 µM (active), the GI50 (UO-31) was 0.622 µM (active) and the GI50 (OVCAR-3) was 1.27 µM (inactive). The GI50 (PC-3) was 1.13 µM (inactive), the GI50 (UACC-257) was 2.56 µM (inactive) and the GI50 (A549) was 3.05 µM (inactive). The GI50 (OVCAR-4) was 0.219 µM (active) and the GI50 (HOP-92) was 11.6 µM (inactive).

— ChEMBL document CHEMBL1201862, “PubChem BioAssay data set” (2004)
